US4812447A, “Method for the treatment of nervous system degeneration” (City of Hope, priority 1986, dated 1989)
Where a name gives a salt, the structure may show the parent alone.

Assays:
[1] = test system: NF^+ neurons; assay: Example 3: fetal mouse brain cell culture, neurofilament (NF) immunofluorescence of neurons; format: cell-based, Swiss mouse; details: for survival of neurons, outgrowth of neuritic processes, establishment of connections between neurons: low concentrations, explants of fetal mouse brain in culture; for optimal concentration for effects on neurons: numbers, processes, connections and staining of NF^+ neurons
Experimental: (§1) Cultures were prepared from finely chopped, mechanically dissociated brains from 14-day old Swiss mouse embryos. Cells were plated at a density of 3×10^5 cells/cm^2 on poly-D-lysine coated glass cover slips and maintained at 37° C. in an atmosphere of 5% CO2, 80% humidity in Dulbecco-modified ME medium supplemented with 10% fetal calf serum and containing penicillin. The medium was first changed at 5 days of culture, at which time DHEA and DHEAS was added in concentrations ranging from 10^-4 M to 10^-8 M to the experimental cultures, while the control cultures received only normal medium. The supplemented and control media were changed at 7 days and on the 9th day the cultures were fixed and immunostained by the indirect immunofluorescent method of Coons with rabbit antisera to neurofilament protein, specific for neurons, and to glial fibrillary acidic protein, which is specific for glial cells. Neuronal and glial cells identified by the above procedures subsequently will be designated as NF^+ and GFAP^+ cells.
(§2) Briefly, cultures were fixed by successive incubation at room temperature with 3.7% formaldehyde and 3.7% formaldehyde containing 0.2% Triton X-100, 10 min each, and incubation at 4° C. with acetone 50%, with acetone 100% and acetone 50%--2 min each. Incubation with the above-mentioned sera anti-cell markers appropriately diluted (1/20-1/30) was carried out at room temperature for 30 min.

[2] = test system: astrocytes (GFAP^+ cells); assay: Example 3: fetal mouse brain cell culture, GFAP immunofluorescence of astrocytes / glial cells; format: cell-based, Swiss mouse; details: for brilliance of astrocyte staining (GFAP per unit cell surface) / extent of astrocyte fiber extension / numbers of astrocytes: vs untreated cultures, GFAP staining; for development and maturation of glial processes: low concentrations, explants of fetal mouse brain in culture
Experimental: as §1, §2

[3] = test system: mice; details: cited from earlier work
[4] = test system: human complement system, C4 component; details: Koo, et al., Klin. Wochnschr, 61, 715 (1983); cited from earlier work
[5] = test system: mice; details: orally; cited from earlier work
[6] = test system: rats; details: orally; cited from earlier work
[7] = oral; cited from earlier work
[8] = test system: SDAT patients; assay: Example 1: treatment of SDAT patients over 75 years old with DHEAS; format: in vivo, human; details: 500 mg three times per day for two months
Experimental: Four patients over 75 years old, suffering from SDAT and having well-documented, progressive SDAT symptoms, are selected. Two of the patients are given 500 mg of DHEAS three times per day for two months. The other two are given a placebo.

Structure (SMILES)	survival of neurons, outgrowth of neuritic processes, establishment of connections between neurons [1]	optimal concentration for effects on neurons [1]	brilliance of astrocyte staining (GFAP per unit cell surface) [2]	extent of astrocyte fiber extension [2]	numbers of astrocytes [2]	development and maturation of glial processes [2]	incidence of breast cancer [3]	obesity [3]	effect on human complement system, in particular C4 component [4]	LD50 [5]	LD50 [6]	absorption in the gut [7]	further results
C[C@]12CC[C@H](O)CC1=CC[C@@H]1[C@@H]2CC[C@]2(C)C(=O)CC[C@@H]12 [DHEA, dehydroepiandrosterone]	remarkable effects in enhancing the survival of neurons	10^-7 M	remarkable increase	remarkable increase	remarkable increase	enhanced greatly	reduce the incidence of breast cancer	reduce obesity	known to effect the human complement system	greater than 10,000 mg/kg	greater than 10,000 mg/kg	readily absorbed in the gut	connections between neurons and between neuronal clusters ([1]; 10^-5 M-10^-8 M): Numerous connections appeared to be formed; neuronal clusters ([1]; 10^-5 M-10^-8 M): greatly enlarged neuronal clusters; processes of NF^+ neurons ([1]; 10^-5 M-10^-8 M): greatly extended, thickened, and intertwined; numbers of NF^+ neurons ([1]; 10^-5 M-10^-8 M, by comparison with controls, fixed on 9th day): remarkable increases; brilliance of fluorescence of neurons and their processes (NF protein content) ([1]; 10^-5 M-10^-8 M, in contrast to dull signal in controls): in marked contrast to the rather dull fluorescent signal observed in the controls; size of NF^+ neurons ([1]; experimental cultures vs controls): larger than those seen in the controls; apparent age after prolonged administration ([3]; prolonged administration): appear to be younger
C[C@]12CC[C@H](OS(=O)(=O)O)CC1=CC[C@@H]1[C@@H]2CC[C@]2(C)C(=O)CC[C@@H]12 [DHEAS, dehydroepiandrosterone sulfate]	remarkable effects in enhancing the survival of neurons	10^-8 M	remarkable increase	remarkable increase	remarkable increase	enhanced greatly	reduce the incidence of breast cancer	reduce obesity	known to effect the human complement system	greater than 10,000 mg/kg	greater than 10,000 mg/kg	readily absorbed in the gut	cognitive ability ([8]; 2 patients vs 2 placebo): significant improvements; memory ([8]; 2 patients vs 2 placebo): significant improvements; speech ([8]; 2 patients vs 2 placebo): significant improvements; signs of further SDAT-type deterioration ([8]; placebo patients show continuing deterioration): No signs of further SDAT-type deterioration; effects on NF^+ neurons compared with those of DHEA ([1]; 10^-4 M to 10^-8 M added): Effects similar to those above
